Patent US9364494B2, “Somatostatin 2 receptor (sst2), deoxycytidine kinase (dck) and uridine monophosphate kinase (umk) pancreatic gene therapy” (Institut National de la Sante et de la Recherche Medicale …, priority 2007, dated 2016)

What was measured:
PC1.0 cells [1] = assay type: in vivo; details: day 15 post-cell implantation; 25 to 50 μg expression vector intra-tumoral; gemcitabine i.p. 80 to 120 mg/kg/day every three days
PC1.0 cells [2] = tested on: PC1.0 cells; design: species or system Syrian golden hamsters; details: hamster, in vivo, ip, 120 mg/kg/day

## Cl.Nc1ccn([C@@H]2O[C@H](CO)[C@@H](O)C2(F)F)c(=O)n1 [Gemcitabine, No DNA, 2′-deoxy-2′,2′-difluorocytidine monohydrochloride]
PC1.0 cells [1]
  Tumor progression (percentage): +150 to 378 percentage
PC1.0 cells [2]
  tumor evolution on day 15: only slow down the tumor progression
